Measurements reported in patent US20060009423A1, “Phosphonate-phosphate and diphosphonate apolipoprotein e modulators” (priority 2002, published 2006).

Key:
THP-1 cells = assay: In vitro apoE secretion by THP-1 cells (ELISA); format: cell-based, human; conditions: 72 hours incubation, ELISA of culture medium
From the text: The in vitro assay comprises determining the effect of a compound of formula (I) in modulating the secretion of apoE by an apoE secreting cell line (e.g., a monocyte-macrophage cell line such as the THP-1 cell line, a liver derived cell line such as the HepG2 cell line, an intestinal derived cell line such as the CaCo2 cell line, or a brain derived cell line such as the astrocytoma CCF-STTG1 cell line). The experimental details for use of the THP-1 cell line in the in vitro assay are provided below.
The THP-1 cell line was derived from the peripheral blood of a child with acute monocytic leukaemia and were obtained from the European Collection of Animal Cell Cultures (ECACC, #88081201). […] The cells are grown as non-adherent cells in RPMI 1640 culture medium, 2 mM glutamine, 20 μM 2-mercaptoethanol. Fresh medium is added to maintain cell density between 2 and 9×10^5 cells/ml. […]
Ninety-six well-microtiter plates are coated by incubating with a 5% gelatin solution from porcine skin, bloom 60 in 50 mM carbonate-bicarbonate buffer, pH9.6 at the concentration of 200 μl/well, for 2 hours at 37° C. The coating solution is carefully removed and the sample to be analyzed was added (100 μl/well) at the appropriate dilution. […] The absorbance at 492 nm versus 620 nm is read on a microplate photometer and the results are then converted in human apoE ng equivalent. […]

apoE plasma levels = assay: ApoE plasma levels in vivo in the rat (ATRA)
plasma apoE = assay: Plasma apoE levels in vivo in rats fed a normal diet; set-up: species or system rat; conditions: orally, 400 mg/kg per day for 5 days
From the text: A convenient model for the screening of apoE modulating compounds is the model described in Leininger-Muller & Siest, 1996. This model involves the use of rats fed a normal diet. Selected compounds of formula (I) ae submitted to the in vivo rat test. Following are the results for compound 1, diethyl α-(dimethoxyphosphinyl)-p-chlorobenzyl phosphate: [drawing 3]
Two groups of 4 or 5 OFA rats (Iffa-Credo, France) weighing between 140 g and 160 g were acclimatized for at least one week, allowed UAR food and tap water ad libitum, under a 12/12 hours light/obscurity cycle (7.00 am-7.00 pm) then treated daily between 3.00 pm and 4.00 pm with test compounds ([…]) p.o. in a vehicle volume of 1 ml for 5 days. Compound 1 was given as a suspension in 20% Tween-80 supplemented with 0.5% carboxymethylcellulose. Control group received 1 ml vehicle alone. After a treatment period of 5 days, rats were weighed, sacrificed by decapitation under pentobarbital anesthesia after an overnight fast. Blood was collected on EDTA and plasma was used for analysis. When given orally to rats at the dose of 400 mg/kg per day for 5 days, compound 1 increased plasma apoE by 61±8%.

apoE in sciatic nerve = assay: Sciatic nerve tissue apoE levels in vivo, rat model of sciatic injury (ELISA); conditions: rats, orally, 400 mg/kg/day for 37 days; % change from control
Experimental: A rat model of sciatic injury was established according to Goodrum & Boudin, 1996. Rats with or without nerve injury were treated orally with compound 1 (400 mg/kg for 5 weeks). The amount of apoE was determined in homogenates of the sciatic nerves by ELISA using a goat anti-apolipoprotein E antibody. A dilution to 1/200 of rat plasma was coated on microtiter plates; apoE was recognized by the polyclonal antibody; the conjugate (anti-goat IgG peroxidase) antibody was then added for substrate biochemical recognition. Apolipoprotein E was expressed as % change from mean control value. Cholesterol was measured with a commercially available enzymatic kit (Bioreac, Switzerland). Results were expressed as % change from control group.

| Structure (SMILES) | production of apoE by THP-1 cells (THP-1 cells) | apoE plasma levels observed in vivo in the rat (apoE plasma levels) | increase of plasma apoE (plasma apoE) | increase of apoE in the contralateral nerve (apoE in sciatic nerve) | increase of apoE in the crushed sciatic nerve (apoE in sciatic nerve) |
| --- | --- | --- | --- | --- | --- |
| CC1=C(/C=C/C(C)=C/C=C/C(C)=C/C(=O)O)C(C)(C)CCC1 [ATRA, all-trans retinoic acid] | decreased the production of apoE | decreased apoE plasma levels |  |  |  |
| CCOP(=O)(OCC)OC(c1ccc(Cl)cc1)P(=O)(OC)OC (stereo not drawn) [compound 1, diethyl α-(dimethoxyphosphinyl)-p-chlorobenzyl phosphate] |  |  | 61±8% | 58% | 154% |
